Like-named read-outs stand apart in the source and are kept apart here. Where a SMILES comes first, the peptide text is derived from it.

The nature of data set [1]: Measurement of the magnification of sweetness intensity in cola beverage (sensory evaluation against cola with sucrose). Type of data set: in vivo. The note with it: control cola beverage containing 10% sucrose. The text has this: (§1) The sweetness intensity of the solution of derivative 2 was 8.75% according to the following equation: (10.0−8.33)×0.25+8.33=8.75. Therefore, the magnification of sweetness of derivative 2 was 5600 (=8.75/0.00155) times that of sucrose. According to the same experiment, the magnification of sweetness intensity of derivative 1 was 22600 times that of sucrose. Further, the magnification of sweetness intensity of other derivatives (3 to 9) can be determined in the same manner. And the magnification of sweetness intensity in a cola beverage can be also determined by the same method compared to the control solution of cola beverage containing 10% sucrose.
Incidentally, the composition of cola beverage is as follows.
Incidentally, as for the concentration of the references, the sucrose concentrations of previous (a) to (e) were used.

Data set [2] is described as follows: Measurement of the magnification of sweetness intensity in aqueous solution (sensory evaluation against sucrose solutions). In kind it is in vivo. The note with it: for magnification of sweetness intensity, times that of sucrose: aqueous solution, PSE 10% concentration, 20 panelists. The procedure: [Method for Determining the Magnification of Sweetness Intensity]
An aqueous solution was prepared by diluting derivative 2 to be PSE 10% concentration (15.5 mg/1000 ml=10/6500 g/100 ml), assuming that the intensity of sweetness of derivative 2 was 6500 times that of sucrose. Separately, aqueous sucrose solutions having sucrose concentrations of (a)6.94%, (b)8.33%, (c)10%, (d)12%, and (e)14.4% were prepared. The sensory evaluation was performed by determining which sucrose solution was closest to the solution of derivative 2 in the sweetness intensity. The result of calculation of the average of points of 20 panelists was 2.25 point.
as §1

For data set [3] the following is noted: cited from earlier work; for sweetness intensity, times that of sucrose by weight: reported in prior publications.
A short description of data set [4]: Standing test of suspension at room temperature (precipitation). Type of data set: physicochemical. The note with it: 1.0 weight part in 70 weight parts of water, homogenized, 7 days.
Data set [5] is described as follows: Sensory evaluation in coffee against 4% sucrose coffee, after production and after storage. Type of data set: in vivo. The note with it: 60 days at room temperature, judged from sweetness. The source says:
And, the sweetener composition in the form of suspension was poured into the sealed container and stood still at room temperature for 60 days.

A short description of data set [6]: Time required to dissolve completely in 500 ml of water with stirring. Type of data set: physicochemical. The note with it: 0.0234 g of powder in 500 ml of water, 25° C., 200 rpm. The procedure: When 50 g of the suspension of the derivative (derivative content 0.0234 g) were added to 500 ml of water (25° C.) with stirring (200 rpm), and the time required to dissolve completely was measured, it took 50 seconds. When 0.0234 g of the powder of the derivative 1, as a reference product, were added to 500 ml of water (25° C.) with stirring (200 rpm) in the same way, and the time required to dissolve completely was measured, it took not less than 3 minutes.

Data set [7] in a line: Magnification of sweetness intensity stated or used for calculating the sweetness of compositions. The note with it: for magnification of sweetness intensity of the derivative as stated for the formulation: value used as basis of calculation, vs sucrose.
A further data set is described as follows: Solubility. Type of data set: physicochemical. The note with it: 25° C.
Data set [8] can be described thus: Rate of dissolving and dispersibility of granular products in water. In kind it is physicochemical. The note with it: crude powder in hot water; insoluble coagulates formed. On the procedure:
*1: As for the rate of dissolving, the distilled water was poured in the 500 ml beaker, 1 g of sample was added to the beaker with gentle mixing by magnetic stirring, and the time of dissolving was measured.

For data set [9] the following is noted: value used as basis of calculation, vs sucrose; cited from earlier work.

As to `COC(=O)[C@H](Cc1ccccc1)NC(=O)[C@H](CC(=O)O)NCCC(C)(C)c1ccc(O)c(C)c1` [Derivative 4, N-[N-[3-(3-methyl-4-hydroxyphenyl)-3-methylbutyl]-L-α-aspartyl]-L-phenyl alanine 1-methyl ester], the “Magnification of sweetness intensity relative to sucrose, in cola beverage” value in [1] is recorded as 29600. Moreover, in data set [2], the “Magnification of sweetness intensity relative to sucrose, in aqueous solution” value was 43500.
Taken in the same sequence, the figures for `COC(=O)[C@H](Cc1ccccc1)NC(=O)[C@H](CC(=O)O)NCCC(C)(C)c1ccc(OC)cc1` [Derivative 5, N-[N-[3-(4-methoxyphenyl)-3-methylbutyl]-L-α-aspartyl]-L-phenylalanine 1-methyl ester] were 8000 and 8400.
In the case of `COC(=O)[C@H](Cc1ccccc1)NC(=O)[C@H](CC(=O)O)NCCC(C)(C)C` [Neotame], the “sweetness intensity, times that of sucrose by weight” value in [3] is 10000 times.
As for `COC(=O)[C@H](Cc1ccccc1)NC(=O)[C@H](CC(=O)O)NCCCc1ccc(OC)c(O)c1` [Derivative 1, N-[N-[3-(3-hydroxy-4-methoxyphenyl)propyl]-L-α-aspartyl]-L-phenylalanine 1-methyl ester], in data set [1], the “Magnification of sweetness intensity relative to sucrose, in cola beverage” value came to 22600. Also, the precipitation on standing result in data set [4] is reported as “all suspended substances were precipitated”. Moreover, the “stability of the derivative in the suspension” value in data set [5] is “not decomposed”. Moreover, in data set [2], the “magnification of sweetness intensity, times that of sucrose” value is 22600 times and the “Magnification of sweetness intensity relative to sucrose, in aqueous solution” value is recorded as 22600. In addition, in [6], the “time required to dissolve completely” value was “not less than 3 minutes”. Further, in data set [7] (at PSE 4%, was calculated as), the “magnification of sweetness intensity at PSE 4%” value is on record as 18500 times. In addition, the “magnification of sweetness intensity of the derivative as stated for the formulation” value (“magnification … for the formulation” below) in data set [7] was 22600 times. In the data set “Solubility”, the “solubility against isomerised sugar "Fujikraft"” value is on record as 0.035 g/100 ml and the solubility in water worked out at 0.152 g/100 ml.
As for `COC(=O)[C@H](Cc1ccccc1)NC(=O)[C@@H](N)CC(=O)O` [Aspartame] (H-Asp-Phe-OMe), the “Magnification of sweetness intensity (vs. sucrose)” value in data set [3] (reference sweetener in Example 9) is listed as 200. Moreover, the “sweetness intensity, times that of sucrose by weight” value in data set [3] is given as 200 times. Besides, the “magnification of sweetness intensity at PSE 0.5%” value in [7] (was calculated as) is on record as 360 times.
For the compound `COC(=O)[C@H](Cc1ccccc1)NC(=O)[C@H](CC(=O)O)NCCC(C)(C)c1ccc(OC)c(O)c1` [Derivative 3, N-[N-[3-(3-hydroxy-4-methoxyphenyl)-3-methylbutyl]-L-α-aspartyl]-L-phenylalanine 1-methyl ester], in data set [1], the “Magnification of sweetness intensity relative to sucrose, in cola beverage” value came to 37000. The “Magnification of sweetness intensity relative to sucrose, in aqueous solution” value in data set [2] was 42400.
With `COC(=O)[C@H](Cc1ccccc1)NC(=O)[C@H](CC(=O)O)NCCCc1ccc(OC)cc1O` [Derivative 7, N-[N-[3-(2-hydroxy-4-methoxyphenyl)propyl]-L-α-aspartyl]-L-phenylalanine 1-methyl ester], the “Magnification of sweetness intensity relative to sucrose, in cola beverage” value in data set [1] is reported as 10600. For the same compound, in data set [2], the “Magnification of sweetness intensity relative to sucrose, in aqueous solution” value worked out at 11100.
For the compound `COC(=O)[C@H](Cc1ccccc1)NC(=O)[C@H](CC(=O)O)NCCCc1ccc(OC)cc1` [Derivative 2, N-[N-[3-(4-methoxyphenyl)propyl]-L-α-aspartyl]-L-phenylalanine 1-methyl ester], the “Magnification of sweetness intensity relative to sucrose, in cola beverage” value in data set [1] came out at 4900. In [8], the “time without reaching complete dissolution” value was greater than 5 min. Besides, the “sweetness intensity of the solution (sucrose equivalent)” value in data set [2] (15.5 mg/1000 ml aqueous solution) is recorded as 8.75%. Also, in data set [2], the “magnification of sweetness intensity, times that of sucrose” value amounted to 5600 times and the “Magnification of sweetness intensity relative to sucrose, in aqueous solution” value is reported as 5500. In data set [7], the “magnification … for the formulation” value was 5000 times. The “Magnification of sweetness intensity (vs. sucrose)” value in data set [7] (value used for Example 9 suspension) was 5000. In the data set “Solubility”, this compound registered a solubility in water of 0.009 g/100 ml.
`OC[C@@H](O)[C@@H](O)CO` [Erythritol]: the “magnification of sweetness intensity at PSE 0.5%” value in data set [7] (was calculated as) is 0.75 times.
Take `COC(=O)[C@H](Cc1ccccc1)NC(=O)[C@H](CC(=O)O)NCCC(C)(C)c1ccc(O)cc1` [Derivative 6, N-[N-[3-(4-hydroxyphenyl)-3-methylbutyl]-L-α-aspartyl]-L-phenylalanine 1-methyl ester]: the “Magnification of sweetness intensity relative to sucrose, in cola beverage” value in data set [1] came to 14000. The “Magnification of sweetness intensity relative to sucrose, in aqueous solution” value in data set [2] amounted to 14900. Besides, the “magnification … for the formulation” value in data set [7] is listed as 14000 times.
`OC[C@H]1O[C@@H](O[C@H]2[C@H](O)[C@@H](O)C(O)O[C@@H]2CO)[C@H](O)[C@@H](O)[C@H]1O` (stereo partly shown) [lactose]: the “magnification of sweetness intensity of filler used for calculation” value in data set [9] is on record as 0.2.
On to `OC[C@@H](O)[C@@H](O[C@H]1O[C@H](CO)[C@@H](O)[C@H](O)[C@H]1O)[C@H](O)[C@@H](O)CO` [maltitole], for which the “magnification of sweetness intensity of filler used for calculation” value in data set [9] is 0.75.
As to `COC(=O)[C@H](Cc1ccccc1)NC(=O)[C@H](CC(=O)O)NCCCc1ccc(O)cc1O` [Derivative 9, N-[N-[3-(2,4-dihydroxyphenyl)propyl]-L-α-aspartyl]-L-phenylalanine 1-methyl ester], the “Magnification of sweetness intensity relative to sucrose, in cola beverage” value in data set [1] was found to be 7500. Further, in data set [2], the “Magnification of sweetness intensity relative to sucrose, in aqueous solution” value stood at 8000.
In the same order, the values of `COC(=O)[C@H](Cc1ccccc1)NC(=O)[C@H](CC(=O)O)NCCCc1ccc(O)c(C)c1` [Derivative 8, N-[N-[3-(3-methyl-4-hydroxyphenyl)propyl]-L-α-aspartyl]-L-phenylalanine 1-methyl ester] are 15800 and 18200.
